From PMC9926234, “Iterative computational design and crystallographic screening identifies potent inhibitors targeting the Nsp3 macrodomain of SARS-CoV-2” (Proceedings of the National Academy of Sciences of the …, 2023)
Like-named read-outs stand apart in the source and are kept apart here.

Biological target: SARS-CoV-2 NSP3 Mac1 (Severe acute respiratory syndrome coronavirus 2, UniProt P0DTD1)
Type: binding
Set-up: contains a conserved macrodomain enzyme (Mac1)
Settings: for Spearman est (compound concentration vs apparent Tm): DSF dose responsiveness, 1 µM nsp3 mac1, adj p given
Method: DSF and associated compound handling was performed as described ([12]), with 5 µM dye “Fluorescent Yellow” (Jacquard iDye Cat #JID1405) used in place of SYPRO Orange. Compounds were tested in triplicate, at seven concentrations in two-fold serial dilutions, at a top concentration of either 1,000 or 100 μM. To minimize experimental noise arising from plate location-based effects on Tma, all concentrations and replicates for each compound were tested within a single region of the microtiter plates, including a DMSO-only control from which ΔTmas were calculated for that compound. […] For each compound, to determine statistical significance of the dose responsive thermal shift, the Spearman’s coefficient was calculated between compound concentration and ΔTma.

[1] = maximal thermal upshift vs DMSO control

Row | SMILES | Spearman est (compound concentration vs apparent Tm) | DSF max dTma [1] | DSF max dTma (maximal thermal upshift)
1 | Nc1ncnc2c1ncn2CCCc1ccsc1 [ZINC000570815972] | 0.79 |  | 
2 | Cc1ccc(CC(=O)OCc2noc(C3CC3)n2)cc1O [Z2995] |  | 0.32 °C | 
3 | Cc1nc2c(C(=O)OCc3ccnc(N(C)C)c3)ccnc2[nH]1 [Z4620] |  | 1.08 °C | 
4 | O=C1CSc2cc(C(=O)OC3c4ccccc4CC3F)ccc2N1 (stereo not shown) [Z8554] |  | 0.13 °C | 
5 | CC1CCc2n[nH]cc2C1C(=O)N(C)OCc1ccccc1 (stereo not shown) [Z8074] |  | 0.54 °C | 
6 | COC(=O)CC1CN(c2ncnc3[nH]ccc23)c2ccccc21 (stereo not shown) [Z4911] |  | 0.79 °C | 
7 | CN(Cc1nnc2c(=O)[nH]ccn12)C(=O)COC1CC1 [ZINC001364630288] | 0.73 |  | 
8 | Cc1csc(=Nc2ccccc2)n1Cc1nnc2n1CCNC2=O [ZINC000881775356] | 0.59 |  | 
9 | COC(=O)CC1CN(c2ncnc3[nH]ccc23)c2ccccc21 (stereo not shown) [ZINC000371804911] | 0.77 |  | 
10 | O=C(Nc1nc2ccccc2c(=O)[nH]1)c1cccnc1 [Z1082933628] | 0.37 |  | 
11 | O=C(NCc1nc2ccccc2c(=O)[nH]1)Nc1cccnc1 [Z8598] |  | 0.22 °C | 
12 | CN(Cc1ncc(Cl)n1C)c1ncnc(N)n1 [Z3291] |  | 0.98 °C | 
13 | Cc1oc(=O)oc1CSc1ncnc2[nH]cnc12 [ZINC000222377450] | 0.54 |  | 
14 | Cc1cc(-n2cncn2)ccc1C(=O)OCC1OCCc2ccccc21 (stereo not shown) [Z3896] |  | 0.63 °C | 
15 | O=C(c1ncnc2[nH]ccc12)N1CC(n2cncn2)C1 [ZINC001327823432] | 0.54 |  | 0.66 ˚C
16 | O=C(c1cccc(O)c1)N1CC=C(c2ccccc2)C1 [Z4141] |  | 0.71 °C | 
17 | Nc1cc(-c2noc(CCn3cccn3)n2)ncn1 [Z5086] |  | 1.48 °C | 
18 | CC(c1ccc(Cl)c(Cl)c1)S(=O)(=O)Cc1cn[nH]c1 (stereo not shown) [Z5728] |  | 0 °C | 
19 | Nc1cc(-c2noc(CCn3cccn3)n2)ncn1 [ZINC000820965086] | 0.58 |  | 
20 | O=C(COC(=O)c1ccc2nsnc2c1)c1ccccc1 [ZINC000779122380] | 0.81 |  | 
21 | O=C(c1c(F)ccc(O)c1F)N1CCC(Oc2cccc(F)c2)C1 (stereo not shown) [Z5547] |  | 0.07 °C | 
22 | CN(Cc1nnc2c(=O)[nH]ccn12)c1nccc(C(F)(F)F)n1 [Z7665] |  | 0.55 °C | 
23 | CC(C(=O)N1CC(C(N)=O)C1)n1cnc2c(N)ncnc21 (stereo not shown) [ZINC001434309614] | 0.08 |  | 0.26 ˚C
